Data as given in ChEMBL document CHEMBL5465560, “Selectivity Literature for EUbOPEN Chemogenomic Library” (2024).

Experiments:
[1] = target: Serine/threonine-protein kinase MARK2 (Homo sapiens) (UniProt Q7KZI7); details: at 10 µM
[2] = target: Proto-oncogene tyrosine-protein kinase receptor Ret (Homo sapiens, UniProt P07949); details: at 10 µM
[3] = target: Homeodomain-interacting protein kinase 1 (Homo sapiens, UniProt Q86Z02); test: Selectivity interaction (KinomeScan (DiscoverX)) EUB0001049a HIPK1; details: at 1 µM
[4] = target: T1, NUAK family SNF1-like kinase 1 (Homo sapiens) (UniProt O60285); test: Selectivity interaction (Ambit KINOMEscan and KiNATiv profiling in Jurkat cells) EUB0000090b NUAK1; assay type: cell-based; details: at 1 µM
T1 sequence (whole entry): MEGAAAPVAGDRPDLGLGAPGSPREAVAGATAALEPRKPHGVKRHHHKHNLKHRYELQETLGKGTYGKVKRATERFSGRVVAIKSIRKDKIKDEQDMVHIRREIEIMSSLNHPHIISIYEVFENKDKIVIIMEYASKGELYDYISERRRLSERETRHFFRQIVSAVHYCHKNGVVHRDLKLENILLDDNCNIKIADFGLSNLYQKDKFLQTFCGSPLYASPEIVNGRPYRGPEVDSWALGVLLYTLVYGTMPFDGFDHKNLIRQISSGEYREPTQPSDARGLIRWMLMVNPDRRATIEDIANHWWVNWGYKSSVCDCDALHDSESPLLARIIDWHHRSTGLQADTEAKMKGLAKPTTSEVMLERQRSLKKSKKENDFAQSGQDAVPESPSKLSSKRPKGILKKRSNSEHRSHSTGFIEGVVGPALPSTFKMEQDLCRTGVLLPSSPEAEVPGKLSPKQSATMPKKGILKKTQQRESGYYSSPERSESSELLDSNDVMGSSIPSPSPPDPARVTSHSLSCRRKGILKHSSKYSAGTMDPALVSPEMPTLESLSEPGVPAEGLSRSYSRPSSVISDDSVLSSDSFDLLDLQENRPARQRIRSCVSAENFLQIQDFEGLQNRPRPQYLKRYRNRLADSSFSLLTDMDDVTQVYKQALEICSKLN

[5] = target: Ribosomal protein S6 kinase alpha-3 (Homo sapiens, UniProt P51812); test: Selectivity interaction (Ambit KINOMEscan and KiNATiv profiling in Jurkat cells) EUB0000090b RPS6KA3; assay type: cell-based; details: at 1 µM
[6] = target: Macrophage-stimulating protein receptor (Homo sapiens, UniProt Q04912); test: Selectivity interaction (Ambit KINOMEscan and KiNATiv profiling in Jurkat cells) EUB0000090b MST1R; assay type: cell-based; details: at 1 µM
[7] = target: T2, Serine/threonine-protein kinase DCLK2 (Homo sapiens) (UniProt Q8N568); test: Selectivity interaction (Kinase panel (Invitrogen)) EUB0000639a DCLK2; details: at 200 nM
T2 sequence (whole entry): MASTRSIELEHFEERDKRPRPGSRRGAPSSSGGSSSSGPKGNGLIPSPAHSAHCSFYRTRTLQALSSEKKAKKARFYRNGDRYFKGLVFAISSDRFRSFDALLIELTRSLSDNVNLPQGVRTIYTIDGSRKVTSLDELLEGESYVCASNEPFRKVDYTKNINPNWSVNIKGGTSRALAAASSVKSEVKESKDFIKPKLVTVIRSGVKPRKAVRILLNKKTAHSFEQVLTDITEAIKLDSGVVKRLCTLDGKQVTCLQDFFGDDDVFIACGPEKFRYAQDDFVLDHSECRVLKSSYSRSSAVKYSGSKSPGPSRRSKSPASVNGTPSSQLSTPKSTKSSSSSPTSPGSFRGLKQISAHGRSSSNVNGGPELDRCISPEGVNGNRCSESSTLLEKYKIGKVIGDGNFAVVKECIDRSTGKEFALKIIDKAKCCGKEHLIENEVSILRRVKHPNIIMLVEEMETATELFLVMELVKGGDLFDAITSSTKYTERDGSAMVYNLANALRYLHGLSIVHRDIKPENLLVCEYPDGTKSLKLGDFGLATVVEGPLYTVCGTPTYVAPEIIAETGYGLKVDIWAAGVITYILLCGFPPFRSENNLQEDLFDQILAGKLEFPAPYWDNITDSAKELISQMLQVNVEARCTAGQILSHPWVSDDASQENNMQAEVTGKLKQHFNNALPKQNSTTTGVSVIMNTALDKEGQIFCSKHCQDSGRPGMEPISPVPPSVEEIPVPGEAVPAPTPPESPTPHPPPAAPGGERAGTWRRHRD

[8] = target: Mitogen-activated protein kinase 8 (Homo sapiens, UniProt P45983); test: Selectivity interaction (Kinase panel (Invitrogen)) EUB0000639a MAPK8; details: at 200 nM
[9] = target: Histone-lysine N-methyltransferase KMT5B (Homo sapiens) (UniProt Q4FZB7); details: at 10 µM
[10] = target: cAMP-dependent protein kinase catalytic subunit beta (Homo sapiens) (UniProt P22694); test: Selectivity interaction (KinomeScan (DiscoverX)) EUB0000695a PRKACB; details: at 100 nM
[11] = target: Calcium/calmodulin-dependent protein kinase type II subunit alpha (Homo sapiens, UniProt Q9UQM7); details: at 10 µM
[12] = tested on: Epidermal growth factor receptor (Homo sapiens), P00533 [UNDEFINED MUTATION]; test: (§1) Selectivity interaction (KinomeScan (DiscoverX)) EUB0001079a EGFR; details: at 1 µM
[13] = tested on: Epidermal growth factor receptor (Homo sapiens), P00533 [L861Q]; test: as §1; details: at 1 µM
[14] = tested on: Epidermal growth factor receptor (Homo sapiens), P00533 [L858R,T790M]; test: as §1; details: at 1 µM
[15] = tested on: Epidermal growth factor receptor (Homo sapiens), P00533 [G719C]; test: as §1; details: at 1 µM
[16] = tested on: Epidermal growth factor receptor (Homo sapiens), P00533 [G719S]; test: as §1; details: at 1 µM
[17] = target: Epidermal growth factor receptor (Homo sapiens, UniProt P00533); test: as §1; details: at 1 µM
[18] = tested on: Epidermal growth factor receptor (Homo sapiens), P00533 [L858R]; test: as §1; details: at 1 µM
[19] = tested on: Epidermal growth factor receptor (Homo sapiens), P00533 [T790M]; test: as §1; details: at 1 µM
[20] = target: Ribosomal protein S6 kinase alpha-1 (Homo sapiens, UniProt Q15418); test: Selectivity interaction (KinomeScan (DiscoverX)) EUB0000045b RPS6KA1
[21] = target: Bone morphogenetic protein receptor type-1A (Homo sapiens, UniProt P36894); test: Selectivity interaction (KinomeScan (DiscoverX)) EUB0000655a BMPR1A; details: at 10 µM
[22] = target: T2, Serine/threonine-protein kinase DCLK2 (Homo sapiens); test: Selectivity interaction (SelectScreen profiling (Invitrogen)) EUB0000607a DCLK2; details: at 2 µM
SRSF protein kinase 1 = SRSF protein kinase 1 (Homo sapiens, UniProt Q96SB4); test: Selectivity interaction (KinomeScan (DiscoverX)) EUB0000666a SRPK1; details: at 10 µM
SRSF protein kinase 1, sequence (Q96SB4 whole entry): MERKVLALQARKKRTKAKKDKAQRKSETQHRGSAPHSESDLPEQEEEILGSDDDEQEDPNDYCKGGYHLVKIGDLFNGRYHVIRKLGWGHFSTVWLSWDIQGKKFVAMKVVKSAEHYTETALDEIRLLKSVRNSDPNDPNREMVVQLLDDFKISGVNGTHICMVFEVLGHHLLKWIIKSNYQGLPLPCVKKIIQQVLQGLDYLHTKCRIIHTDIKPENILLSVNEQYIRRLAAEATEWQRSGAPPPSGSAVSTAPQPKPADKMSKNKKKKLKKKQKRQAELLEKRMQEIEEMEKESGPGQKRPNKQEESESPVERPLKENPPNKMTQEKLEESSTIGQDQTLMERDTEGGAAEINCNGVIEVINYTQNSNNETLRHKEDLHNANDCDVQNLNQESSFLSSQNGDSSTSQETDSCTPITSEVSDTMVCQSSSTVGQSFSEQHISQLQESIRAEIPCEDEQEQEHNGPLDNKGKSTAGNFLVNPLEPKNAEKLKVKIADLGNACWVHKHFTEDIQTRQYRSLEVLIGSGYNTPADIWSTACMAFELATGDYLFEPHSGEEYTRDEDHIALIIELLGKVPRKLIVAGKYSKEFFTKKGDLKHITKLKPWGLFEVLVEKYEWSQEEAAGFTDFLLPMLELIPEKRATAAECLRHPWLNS

Ribosomal protein S6 kinase alpha-1, sequence (Q15418 whole entry): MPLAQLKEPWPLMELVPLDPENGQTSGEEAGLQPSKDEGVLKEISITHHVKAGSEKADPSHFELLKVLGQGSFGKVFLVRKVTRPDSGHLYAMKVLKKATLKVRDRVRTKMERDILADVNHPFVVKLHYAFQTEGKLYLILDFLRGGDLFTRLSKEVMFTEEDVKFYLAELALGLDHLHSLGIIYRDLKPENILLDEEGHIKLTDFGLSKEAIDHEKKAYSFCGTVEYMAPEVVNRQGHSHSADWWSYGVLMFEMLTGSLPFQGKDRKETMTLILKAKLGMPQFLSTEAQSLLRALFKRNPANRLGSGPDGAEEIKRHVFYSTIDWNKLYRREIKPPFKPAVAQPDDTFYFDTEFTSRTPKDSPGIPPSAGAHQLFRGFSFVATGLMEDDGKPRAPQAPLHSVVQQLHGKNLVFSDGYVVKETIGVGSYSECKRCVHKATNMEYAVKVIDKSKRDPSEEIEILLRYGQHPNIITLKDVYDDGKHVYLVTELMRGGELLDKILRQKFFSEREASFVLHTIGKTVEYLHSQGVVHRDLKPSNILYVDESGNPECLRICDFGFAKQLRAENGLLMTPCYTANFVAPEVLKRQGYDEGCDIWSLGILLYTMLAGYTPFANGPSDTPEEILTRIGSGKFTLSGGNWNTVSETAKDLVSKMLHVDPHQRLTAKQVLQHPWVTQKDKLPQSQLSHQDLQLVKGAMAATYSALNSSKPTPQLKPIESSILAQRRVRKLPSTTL
Epidermal growth factor receptor (Homo sapiens), P00533 [T790M], sequence (P00533 whole entry T790M): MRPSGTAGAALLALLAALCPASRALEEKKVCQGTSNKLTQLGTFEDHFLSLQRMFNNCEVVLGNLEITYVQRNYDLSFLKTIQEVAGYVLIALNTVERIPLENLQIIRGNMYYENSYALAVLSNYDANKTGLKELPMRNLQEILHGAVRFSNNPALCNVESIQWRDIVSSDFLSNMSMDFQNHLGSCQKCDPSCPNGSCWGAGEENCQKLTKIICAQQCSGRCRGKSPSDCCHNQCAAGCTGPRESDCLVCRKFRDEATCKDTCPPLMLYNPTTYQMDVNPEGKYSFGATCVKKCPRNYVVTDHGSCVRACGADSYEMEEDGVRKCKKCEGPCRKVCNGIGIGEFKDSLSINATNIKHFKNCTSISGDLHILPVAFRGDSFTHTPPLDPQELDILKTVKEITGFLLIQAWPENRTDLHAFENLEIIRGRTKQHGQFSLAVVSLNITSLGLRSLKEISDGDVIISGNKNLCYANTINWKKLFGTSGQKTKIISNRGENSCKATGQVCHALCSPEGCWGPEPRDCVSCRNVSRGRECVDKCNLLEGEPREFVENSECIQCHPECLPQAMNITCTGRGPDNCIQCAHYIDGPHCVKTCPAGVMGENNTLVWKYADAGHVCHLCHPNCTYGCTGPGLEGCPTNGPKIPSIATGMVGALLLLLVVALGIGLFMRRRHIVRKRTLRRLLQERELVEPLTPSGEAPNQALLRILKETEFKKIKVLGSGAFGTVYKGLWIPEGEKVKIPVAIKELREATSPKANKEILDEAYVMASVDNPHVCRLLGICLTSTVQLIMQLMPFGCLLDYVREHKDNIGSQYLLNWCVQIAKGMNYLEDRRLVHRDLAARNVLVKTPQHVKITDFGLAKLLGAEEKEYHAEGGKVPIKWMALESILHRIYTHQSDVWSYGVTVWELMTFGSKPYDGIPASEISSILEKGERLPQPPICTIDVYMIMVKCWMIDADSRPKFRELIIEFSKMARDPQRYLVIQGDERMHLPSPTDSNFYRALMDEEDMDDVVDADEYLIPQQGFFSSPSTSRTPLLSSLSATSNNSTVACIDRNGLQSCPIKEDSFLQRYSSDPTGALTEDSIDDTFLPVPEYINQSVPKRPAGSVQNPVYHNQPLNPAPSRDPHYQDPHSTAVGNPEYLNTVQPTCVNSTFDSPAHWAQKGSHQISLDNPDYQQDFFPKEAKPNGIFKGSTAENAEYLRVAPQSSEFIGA
Macrophage-stimulating protein receptor, sequence (Q04912 25-304 limits assumed): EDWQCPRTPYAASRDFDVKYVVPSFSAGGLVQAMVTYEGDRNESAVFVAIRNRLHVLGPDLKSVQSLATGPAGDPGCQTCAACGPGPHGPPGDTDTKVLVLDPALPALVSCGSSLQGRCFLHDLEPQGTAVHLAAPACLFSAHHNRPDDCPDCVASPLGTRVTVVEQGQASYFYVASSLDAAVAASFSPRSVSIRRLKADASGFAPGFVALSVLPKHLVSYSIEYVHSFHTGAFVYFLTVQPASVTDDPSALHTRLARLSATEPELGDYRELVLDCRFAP
Macrophage-stimulating protein receptor, sequence (Q04912 310-1400 limits assumed): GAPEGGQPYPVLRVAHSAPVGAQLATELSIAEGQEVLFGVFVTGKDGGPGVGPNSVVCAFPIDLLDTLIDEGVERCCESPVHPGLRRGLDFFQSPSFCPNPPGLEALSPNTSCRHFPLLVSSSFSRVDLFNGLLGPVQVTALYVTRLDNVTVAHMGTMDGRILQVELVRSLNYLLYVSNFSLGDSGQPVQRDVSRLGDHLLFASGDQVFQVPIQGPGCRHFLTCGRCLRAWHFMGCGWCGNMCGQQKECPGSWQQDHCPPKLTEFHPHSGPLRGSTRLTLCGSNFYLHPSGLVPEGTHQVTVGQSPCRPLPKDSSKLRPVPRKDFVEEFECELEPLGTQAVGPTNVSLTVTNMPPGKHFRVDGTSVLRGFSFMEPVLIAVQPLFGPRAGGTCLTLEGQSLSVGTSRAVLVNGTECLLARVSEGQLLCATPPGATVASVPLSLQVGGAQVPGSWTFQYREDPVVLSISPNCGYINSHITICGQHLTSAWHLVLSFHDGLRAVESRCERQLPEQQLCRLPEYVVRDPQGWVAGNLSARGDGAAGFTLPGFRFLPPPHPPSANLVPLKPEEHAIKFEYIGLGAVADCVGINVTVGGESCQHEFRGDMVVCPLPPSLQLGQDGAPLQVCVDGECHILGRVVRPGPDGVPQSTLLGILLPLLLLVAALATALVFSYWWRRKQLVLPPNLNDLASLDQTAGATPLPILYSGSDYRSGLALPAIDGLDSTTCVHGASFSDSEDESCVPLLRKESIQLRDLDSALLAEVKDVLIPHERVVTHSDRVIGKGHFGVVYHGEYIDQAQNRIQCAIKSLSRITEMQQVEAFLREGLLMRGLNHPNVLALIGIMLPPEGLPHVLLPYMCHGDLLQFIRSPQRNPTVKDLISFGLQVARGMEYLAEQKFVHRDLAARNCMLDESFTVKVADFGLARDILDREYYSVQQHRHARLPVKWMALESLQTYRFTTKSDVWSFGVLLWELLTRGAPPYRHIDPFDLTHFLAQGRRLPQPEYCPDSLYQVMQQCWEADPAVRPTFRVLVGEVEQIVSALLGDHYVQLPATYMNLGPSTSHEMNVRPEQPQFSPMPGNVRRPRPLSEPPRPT
Ribosomal protein S6 kinase alpha-3, sequence (P51812 whole entry): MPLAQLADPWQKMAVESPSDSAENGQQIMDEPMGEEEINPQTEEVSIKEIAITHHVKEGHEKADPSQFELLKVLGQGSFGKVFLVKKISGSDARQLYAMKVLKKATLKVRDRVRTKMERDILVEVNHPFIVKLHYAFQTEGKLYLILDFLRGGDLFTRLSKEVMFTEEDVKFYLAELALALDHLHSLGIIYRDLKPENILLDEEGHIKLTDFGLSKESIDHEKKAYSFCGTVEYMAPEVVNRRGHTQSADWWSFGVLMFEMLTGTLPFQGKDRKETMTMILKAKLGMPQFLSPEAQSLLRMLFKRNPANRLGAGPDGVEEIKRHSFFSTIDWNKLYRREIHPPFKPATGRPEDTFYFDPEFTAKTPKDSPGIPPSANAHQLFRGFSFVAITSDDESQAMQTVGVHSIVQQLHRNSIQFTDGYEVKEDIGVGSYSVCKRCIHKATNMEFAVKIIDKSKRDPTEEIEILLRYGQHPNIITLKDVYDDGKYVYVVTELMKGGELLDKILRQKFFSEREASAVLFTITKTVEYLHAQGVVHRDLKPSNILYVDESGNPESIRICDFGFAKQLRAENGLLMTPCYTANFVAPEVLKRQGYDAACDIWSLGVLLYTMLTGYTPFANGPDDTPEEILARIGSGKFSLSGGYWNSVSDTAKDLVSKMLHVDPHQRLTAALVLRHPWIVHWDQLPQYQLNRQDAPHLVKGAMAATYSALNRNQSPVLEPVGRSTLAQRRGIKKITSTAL

Cc1cc([C@@H](C)Nc2ccccc2C(=O)O)c2nc(N3CCOCC3)cc(=O)n2c1 [AZD-6482]
% of control [1]: 90% | % of control [2]: 100%

COc1cc(Nc2nc(C)cc(-c3cnn4nc(OC)ccc34)n2)cc(C(F)(F)F)c1
% of control [3]: 70%

CN(C)C/C=C/C(=O)Nc1ccc(C(=O)N2CCCC(Nc3ncc(Cl)c(-c4c[nH]c5ccccc45)n3)C2)cc1 (centres undefined)
% of control [4]: 84% | % of control [5]: 5% | % of control [6]: 90%

CC[C@@H]1[C@H](F)C(=O)N[C@@H]1COc1nccc2cc(C(N)=O)c(OC)cc12 [ZIMLOVISERTIB]
% of inhibition [7]: 24.9% | % of inhibition [8]: 6.17%

CNCCN1CCC(c2cc(CN(C)C(=O)c3cccc(Oc4ccccc4)c3)ccn2)CC1
% activity [9]: > 90%

Cc1cc(F)c(C(=O)Nc2cccc(-c3nncn3C(C)C)n2)cc1-n1cnc(C2CC2)c1
% of control [10]: 100%

CCN(CC)CCCCNc1ncc2cc(-c3cc(OC)cc(OC)c3)c(NC(=O)NC(C)(C)C)nc2n1
% of control [11]: 100%

Nc1cnc(N2CCc3cc(S(=O)(=O)Nc4c(F)cc(Cl)cc4F)cc(N4CCCC4=O)c32)nc1 [TP-020n]
% of control [12]: 74% | % of control [13]: 100% | % of control [14]: 77% | % of control [15]: 100% | % of control [16]: 75% | % of control [17]: 82% | % of control [18]: 85% | % of control [19]: 88%

C=CC(=O)Nc1cc(-n2c(=O)ccc3cnc4ccc(-c5ccc(NS(C)(=O)=O)cc5)cc4c32)ccc1C
% of control ([20]; at 1 µM): 76% | % of control ([20]; at 10 µM): 67%

CN(C)CCOc1ccc(-c2nc(-c3ccncc3)c(-c3ccc4c(c3)CC/C4=N\O)[nH]2)cc1
% of control [21]: 100%

CNC(=O)Nc1ccc(-c2nc(N3CC4CCC(C3)O4)c3cnn(C4CCC5(CC4)OCCO5)c3n2)cc1
% of inhibition [22]: 2%

O=C(NOC[C@H](O)CO)c1ccc(F)c(F)c1Nc1ccc(I)cc1F
% of control (SRSF protein kinase 1): 100%
